Laboratory results taken from patent US20030036556A1, “Zonisamide use in headache” (priority 2001, published 2003).
Read-outs that look alike come from different tables or passages of the source.

Legend:
[1] = tested on: dopaminergic and serotonergic neurotransmission; settings: in vivo microdialysis; cited from earlier work
[2] = tested on: T-type Ca2+ currents; settings: in vitro, cited from earlier work
[3] = tested on: GABA/benzodiazepine receptor ionophore complex; settings: in vitro, cited from earlier work
[4] = tested on: interictal spikes and secondarily generalized seizures; settings: cortical freezing in cats; cited from earlier work
[5] = tested on: refractory migraines and mixed headache disorders; assay: Open-label adjunctive zonisamide treatment of refractory headache patients (Example 1); type: in vivo, human
Description: Thirty-three (33) patients from an active headache clinic population were selected for open-label treatment with zonisamide. All patients had refractory migraines and mixed headache disorders, as defined by International Headache Society criteria. All had failed or responded poorly to trials with other anticonvulsants as prophylactic therapy. Most patients (n=27) had failed at least 2 such agents, and 17 had failed 3 agents. […] (Table 1). Zonisamide was initiated as adjunctive therapy: 100 mg of the medication was given in the evening or at bedtime every fourth day for 4 to 5 doses. Consequently, dosing was increased to every third day, every other day, and finally to a daily dose. Dose adjustments of zonisamide were made in increments of 100 mg, every 2 to 3 weeks, with a daily maximum dose of 500 mg, in some cases. Headache severity was rated on a 0 to 10 numeric rating scale (NRS).

[6] = tested on: sodium channels; settings: in vitro, cited from earlier work
[7] = tested on: chronic pain disorders (neuropathic pain), refractory migraine headaches; assay: Zonisamide treatment of chronic pain and refractory headache patients (Example 3); type: in vivo, human
Text: Twenty-five patients with various chronic pain disorders were selected for treatment with zonisamide. All had neuropathic pain of one kind or another. Fifteen had failed back/neck surgeries with ongoing radicular pain, 4 had complex regional pain syndrome (type 1), 4 had diabetic neuropathy, and 2 had painful sensory neuropathy. All had failed, or responded minimally at best, to trials of numerous other anticonvulsants (neuronal stabilizing agents) for prior treatment of pain symptoms. Eighteen were on such therapy at the time of starting zonisamide therapy. Twenty-two patients with refractory migraine headaches of mixed headache disorders were similarly selected for zonisamide therapy. Most (n=17) had failed 3 or more other neuronal stabilizing agents as prophylaxis therapy for their headaches. […] Zonisamide was begun at 100 mg every third day for 3 to 5 doses, with an increase to every-other-day dosing and then to a daily dose. Dosage changes were made every 2 weeks at a minimum. Headache and pain spores were rated on a 0 to 10 numeric rating scale by each patient.

[8] = tested on: rat hippocampal slices; settings: zonisamide 10-30 μg/mL; cited from earlier work
[9] = tested on: chronic pain disorders, all with neuropathic pain; assay: Zonisamide treatment of chronic pain patients (Example 4); type: in vivo, human
Description: This study included 30 patients with various chronic pain disorders, all with neuropathic pain (Table 1). All patients had previously failed or responded minimally to numerous other anticonvulsants (neuronal stabilizing agents) for treatment of painful symptoms. Twenty-three patients were on such therapy at the time zonisamide therapy was initiated. Zonisamide therapy was initiated at 100 mg every fourth day for 3 to 6 doses, with an increase to every third day, then to every other day, and finally to a daily dose. Adjustments in the dose of zonisamide were made no more than every 2 weeks. Headache and pain scores were rated on a 0 to 10 numeric rating scale (NRS) by each patient.

[10] = tested on: cultured mouse spinal cord neurons; settings: zonisamide 10-30 μg/mL; cited from earlier work
[11] = tested on: interictal spikes and secondarily generalized seizures; settings: cortical application of tungstic acid gel in rats; cited from earlier work
[12] = tested on: CDH (chronic daily headache); assay: Zonisamide for prophylaxis of chronic daily headache (Example 2); type: in vivo, human; settings: for Mean number of headache days per month: baseline 22
Description: Sixteen patients who received zonisamide for prophylaxis of CDH (i.e., >15 headache days/month) for at least 3 months were included in this study. […] Zonisamide therapy was initiated at 100 mg/day, and 6 patients were titrated to a zonisamide dosage of 200 mg/day after 2 weeks. Patient headache diaries were used to record information, regarding headache frequency, duration, severity, and disability ratings. Headache severity and disability were rated using a 4-point scale (0=none; 1=mild; 2=moderate; 3=severe). Headache diaries and clinic records were used to determine mean headache duration, frequency, severity, disability for each patient 1 month prior to initiation of zonisamide therapy (baseline) and again 3 months after stable zonisamide dosage was established.

[13] = tested on: cortical focal seizures; settings: electrical stimulation of the visual cortex in cats; cited from earlier work
[14] = tested on: generalized seizures in the kindled rat model; settings: cited from earlier work

For `NS(=O)(=O)Cc1noc2ccccc12` [zonisamide, 1,2-benzisoxazole-3-methanesulfonamide], the “dopaminergic and serotonergic neurotransmission” value [1] is given as “facilitates”, the “effect on voltage-dependent, transient inward currents (T-type Ca2+ currents)” value [2] is given as “reduces” and the “effect on voltage-dependent, transient inward currents (T-type Ca2+ currents)” value ([2]; listed as Zonisamide) is given as “blocks”. The “binding to the GABA/benzodiazepine receptor ionophore complex” value ([3]; allosteric fashion) was “binds”, the “changes in chloride flux” value [3] was “does not produce changes” and the “interictal spikes and secondarily generalized seizures” value [4] was “suppressed”. For the same molecule, the “number of patients (n) with discontinuation due to side effects” value ([5]; 33 patients) was 4, the “number of patients (n) with no response” value ([5]; 33 patients) was 3 and the “number of patients (n) with 25% to 50% decrease in headache frequency” value ([5]; after at least 2 months of zonisamide therapy, 33 patients) was 8. The “number of patients (n) with ≧65% decrease in headache frequency” value ([5]; after at least 2 months of zonisamide therapy, 33 patients, 10 still in titration) was 6, the “patients who did not respond” value ([5]; of 33 patients) was 9 % of total and the “patients who dropped the medication due to side effects” value ([5]; of 33 patients) was 12 % of total. The “effect on sodium channels” value [6] was “blocks”, the “effect on sodium channels” value ([6]; listed as Zonisamide) was “inhibits” and the “number of patients with pain reductions averaging 60% or better” value ([7]; 0 to 10 numeric rating scale) was 6 patients. The “number of patients with reductions in pain of 30% to 50%” value ([7]; 0 to 10 numeric rating scale) was “Six”, the “number of patients with slight reductions (less than 25%)” value ([7]; 0 to 10 numeric rating scale) was “Four” and the “number of patients with no pain relief and/or side effects” value ([7]; human, in vivo) was 7 patients. The “neuronal or glial uptake of [3H]-GABA” value [8] was “without affecting”, the “number of patients with no pain relief and/or reported side effects” value ([9]; 30 patients) was 5 patients and the “number of patients with slight (less than 25%) pain reductions” value ([9]; 30 patients) was “Five”. For the same molecule, the “number of patients with pain reductions of 60% or greater” value ([9]; after at least 2 months of zonisamide therapy, 30 patients) was 10 patients, the “number of patients with 30% to 50% reductions in pain” value ([9]; after at least 2 months, 30 patients) was 7 patients and the “share of patients with 30% to 50% reductions in pain” value ([9]; of 30 patients) was 23%. For the same molecule, the “share of patients with no pain relief and/or reported side effects” value ([9]; of 30 patients) was 17%, the “share of patients with pain reductions of 60% or greater” value ([9]; of 30 patients) was 30% and the “share of patients with slight (less than 25%) pain reductions” value ([9]; of 30 patients) was 17%. The “post-synaptic GABA or glutamate responses” value [10] was “without affecting”, the synaptically-driven electrical activity [10] was “suppresses” and the “interictal spikes and secondarily generalized seizures” value [11] was “suppressed”. The Mean disability rating ([12]; 4-point scale (0=none to 3=severe), after 3 months, baseline 1.48) was 1.12, the “Mean headache severity rating” value ([12]; 4-point scale (0=none to 3=severe), after 3 months, baseline 1.84) was 1.41 and the Mean headache duration ([12]; after 3 months at stable dosage, mean dosage 137.5 mg/d, baseline 8.46) was 6.41 h. The “Mean number of headache days per month” value ([12]; after 3 months at stable dosage, mean dosage 137.5 mg/d, n=16) was 5 days/month, the “Mean number of headache days per month” value ([12]; after 3 months at stable dosage, mean dosage 137.5 mg/d, n=16, listed as Zonismide) was 14.5 days/month and the “decrease of mean disability rating” value ([12]; after 3 months vs baseline) was 24%. The “decrease of mean headache rating” value ([12]; after 3 months vs baseline) was 23%, the “reduction of mean headache duration” value ([12]; after 3 months vs baseline) was 24% and the “reduction of total headache time” value ([12]; after 3 months vs baseline) was 50%. The “reduction of mean number of headache days/month” value ([12]; after 3 months vs baseline, mean dosage 137.5 mg/d) was 34%, the mean weight loss ([12]; in the 9 patients with weight loss) was 11 lb and the “adverse events: number of patients with mild diarrhea” value ([12]; n=16) was 2 patients. The “adverse events: number of patients with weight loss” value ([12]; n=16) was 9 patients, the tolerability ([12]; n=16, 3 months) was “well tolerated” and the Total headache time ([12]; on zonisamide after 3 months, baseline 186) was 93 hours/month. For the same molecule, the “duration of cortical focal seizures” value [13] was “reduced the duration” and the “effect on threshold for generalized seizures” value [14] was “anticonvulsant activity”.
